Patent US20160295860A1, “A NOVEL COMPOSITION AND METHOD OF USE TO CONTROL PATHOGENS AND PREVENT DISEASES IN SEEDS” (AGRI-NÉO INC., priority 2013, published 2016)

Experiments:
[1] = system: Total count Aerobic bacteria; assay: Total aerobic count on seeds, grains and spices sprayed with sanitizing solutions; format: cell-based
Protocol: (§1) Seeds were mechanically cleaned and spread in stainless steel containers. Each 100 grams seeds were sprayed with 4 ml total solutions descried above via conventional trigger vaporizer. This solution is equivalent to 40 L disinfecting solution total sprayed on 1-ton seeds. Seeds, grains and spices were selected to represent all families and types of seeds, grains and spices. Another criteria was to select seeds and grains contaminated with a high count of total aerobic bacteria, yeast, mold, E. coli, Salmonella sp. and other pathogenic microorganisms.
(§2) Seeds, grains and spices treated were: • Whole dried pea, • Split pea dried, • Pea fiber, • Vanilla, • Chia, • Sprouted flax and chia, • Flax, • Hemp, and • Black pepper seeds

Y&M (yeast, mold) = assay: Yeast and mold (Y&M) count on seeds, grains and spices sprayed with sanitizing solutions; format: cell-based; settings: for Y&M, n1: replicate n1; for Y&M, n2: replicate n2
Protocol: as §1, §2

[2] = Whole dried pea, 40 L per 1 ton
[3] = Whole split pea, 40 L per 1 ton

SMILES | Conclusion in words on bactericidal efficacy ([1]; Black pepper, 40 L per 1 ton) | Conclusion in words on bactericidal efficacy ([1]; Hemp, 40 L per 1 ton) | Conclusion in words on bactericidal efficacy ([1]; Pea fiber, 40 L per 1 ton) | Conclusion in words on bactericidal efficacy ([1]; Sprouted flax and chia) | Conclusion in words on bactericidal efficacy ([1]; Vanilla, 40 L per 1 ton) | Conclusion in words on bactericidal efficacy [1, 2] | Conclusion in words on bactericidal efficacy [1, 3] | Y&M, Av (Y&M (yeast, mold); Pea fiber) | Y&M, n1 (Y&M (yeast, mold); Pea fiber) | Y&M, n2 (Y&M (yeast, mold); Pea fiber) | Y&M, Av (Y&M (yeast, mold); Whole dried pea) | Y&M, n1 (Y&M (yeast, mold); Whole dried pea) | Y&M, n2 (Y&M (yeast, mold); Whole dried pea) | Y&M, Av (Y&M (yeast, mold); Whole split pea) | Y&M, n1 (Y&M (yeast, mold); Whole split pea) | Y&M, n2 (Y&M (yeast, mold); Whole split pea)
CCO [2- Alcohol - ethanol, ethanol] | not a strong bactericidal agent | not a strong bactericidal agent | not a strong bactericidal agent | bactericidal agent but not very strong | not a strong bactericidal agent | not a strong bactericidal agent | not a strong bactericidal agent | Y&M not detected | n1, n2 not detected | n1, n2 not detected | Y&M not detected | n1, n2 not detected | n1, n2 not detected | Y&M not detected | n1, n2 not detected | n1, n2 not detected
CC(=O)OO [Peracetic acid] | strong bactericidal agent | strong bactericidal agent | strong bactericidal agent | – | strong bactericidal agent | strong bactericidal agent | strong bactericidal agent | – | – | – | – | – | – | – | – | –
